Biological target: hPHT1 (human peptide/histidine transporter 1, SLC15A4) (Homo sapiens, UniProt Q8N697, L14A/L15A/L318A/V319A)
Assay: inhibition of MDP uptake in hPHT1mut cells at […], mock-subtracted
Format: cell-based
Conditions: read-out: % inhibition at 2 mM

hPHT1 (human peptide/histidine transporter 1, SLC15A4), sequence (Q8N697 whole entry L14A/L15A/L318A/V319A): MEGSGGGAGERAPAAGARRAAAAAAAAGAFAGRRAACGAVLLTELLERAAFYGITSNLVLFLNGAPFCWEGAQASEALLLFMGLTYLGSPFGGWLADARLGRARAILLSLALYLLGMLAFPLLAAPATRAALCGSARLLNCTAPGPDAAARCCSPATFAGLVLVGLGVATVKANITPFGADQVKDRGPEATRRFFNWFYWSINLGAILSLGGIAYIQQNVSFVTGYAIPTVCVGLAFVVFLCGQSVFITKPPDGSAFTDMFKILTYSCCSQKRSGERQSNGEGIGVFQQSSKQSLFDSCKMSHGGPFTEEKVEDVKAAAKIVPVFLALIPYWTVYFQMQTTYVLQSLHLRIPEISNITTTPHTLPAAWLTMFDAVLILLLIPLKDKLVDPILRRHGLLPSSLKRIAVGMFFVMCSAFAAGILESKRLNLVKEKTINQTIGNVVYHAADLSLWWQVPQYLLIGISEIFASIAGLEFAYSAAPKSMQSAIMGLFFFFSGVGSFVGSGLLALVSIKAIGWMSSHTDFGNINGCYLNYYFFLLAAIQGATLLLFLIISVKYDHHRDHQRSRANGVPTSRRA

SMILES | inhibition at 2000 µM
C[C@H](CS)C(=O)N1CCC[C@H]1C(=O)O [captopril] | 70 to 85%
CC1=C(C(=O)O)N2C(=O)[C@@H](NC(=O)[C@H](N)c3ccc(O)cc3)[C@H]2SC1 [cefadroxil] | 70 to 85%
CC1=C(C(=O)O)N2C(=O)[C@@H](NC(=O)[C@H](N)C3=CCC=CC3)[C@H]2SC1 [cephradine] | 70 to 85%
NCCCC[C@H](N[C@@H](CCc1ccccc1)C(=O)O)C(=O)N1CCC[C@H]1C(=O)O [lisinopril] | 70 to 85%
